This note sets out measurements from publication PMC6930500, “Structure–Activity Relationships of 7-Substituted Dimethyltyrosine-Tetrahydroisoquinoline Opioid Peptidomimetics” (Molecules, 2019).

What is called Emax is the size of the effect at its maximum, as opposed to the concentration needed. As a reminder, the Ki is a dissociation constant, usually derived from enzyme kinetics or from competition with a known ligand. Higher therefore signals a looser hold on the target. The EC50 is the concentration at which the effect is half-maximal. Read a low EC50 as a more potent agent.

Assay [1] deals with T1, human MOR (Homo sapiens, UniProt P35372).
T1 construct: expressed in transfected cells; cell lines provided by Professor Lawrence Toll
Nature of the assay: [35S]-GTPγS binding stimulation, MOR. The note with it: for Emax: versus 10 µM standard agonist DAMGO, dns = average maximal stimulation <10% at up to 10 µM; for Emax / EC50: mean (SEM), * n = 2; for EC50: CHO-human MOR membranes, dns = does not stimulate, average maximal stimulation <10% at up to 10 µM. It counts as biochemical. Here is the method:
(§1) Each novel compound was evaluated for binding to and stimulation of KOR, MOR, and DOR. Binding affinity (Ki) was determined by competitive displacement of [^3H]-diprenorphine, a non-selective opioid receptor antagonist with similar affinity for each of the three receptors. Potency (EC50) and efficacy, expressed as percent stimulation compared to a standard agonist at each receptor, were determined by a [^35S]-GTPγS binding assay.
(§2) Membranes prepared from transfected Chinese Hamster Ovary cells stably expressing human KOR, human MOR, or human DOR were used for all assays. Cells were grown to confluence at 37 °C in 5% CO2 in 1:1 DMEM:F12 media with 10% v/v fetal bovine serum and 5% v/v penicillin/streptomycin. Membranes were prepared by washing confluent cells three times with ice cold phosphate-buffered saline (0.9% NaCl, 0.61 mM Na2HPO4, 0.38 mM KH2PO4, pH 7.4). Cells were detached from the plates by incubation in warm harvesting buffer (20 mM HEPES, 150 mM NaCl, 0.68 mM EDTA, pH 7.4) and pelleted by centrifugation at 200× g for 3 min. The cell pellet was suspended in ice-cold 50 mM Tris-HCl buffer, pH 7.4 and homogenized with a Tissue Tearor (Biospec Products, Inc, distributed by Cole-Parmer, Vernon Hills, IL, USA) for 20 s at setting 4. The homogenate was centrifuged at 20,000× g for 20 min at 4 °C, and the pellet was rehomogenized in 50 mM Tris-HCl pH 7.4 with a Tissue Tearor for 10 s at setting 2, followed by recentrifugation. The final pellet was resuspended in 50 mM Tris-HCl pH 7.4 and frozen in aliquots at −80 °C. Protein concentration was determined via Pierce BCA protein assay kit using bovine serum albumin as the standard.
(§3) Agonist stimulation of KOR, MOR, and DOR by all test compounds was determined by [^35S]-guanosine 5′-O-[γ-thio]triphosphate ([^35S]-GTPγS) binding assays as previously reported. In a 96-well plate format, membranes from cells expressing opioid receptors as described above (10 µg of protein), [^35S]-GTPγS (0.1 nM), and guanosine diphosphate (30 µM) were incubated in GTPγS buffer (50 mM Tris-HCl, 100 mM NaCl, 5 mM MgCl2, 1 mM EDTA, pH 7.4) with various concentrations of test compound at 25 °C for 1 h. Basal stimulation was determined by incubation in the absence of any ligand. After incubation, membranes were filtered through Whatman GF/C 1.2 micron glass fiber filters and washed with GTPγS buffer with no EDTA. The radioactivity remaining on the filters was then quantified by liquid scintillation counting after saturation with EcoLume liquid scintillation cocktail in a Perkin-Elmer Microbeta 2450. Data are reported as percent stimulation compared to the effects of 10 µM standard agonists—U69,593 (KOR), DAMGO (MOR), or DPDPE (DOR). Percent stimulation and EC50 values were determined via nonlinear regression analysis using GraphPad Prism software from at least three separate assays performed in duplicate. Efficacy is expressed as percent stimulation relative to standard agonists.
Background: GTPγS resists hydrolysis and so accumulates on activated G proteins.

In assay [2] the target is T2, human DOR (Homo sapiens, UniProt P41143).
T2 construct: expressed in transfected cells; cell lines provided by Professor Lawrence Toll
Description: [35S]-GTPγS binding stimulation, DOR. It counts as biochemical. The note with it: mean (SEM), * n = 2; for % Stimulation DOR: versus 10 µM standard agonist DPDPE, dns = average maximal stimulation <10% at up to 10 µM. Here is the method: as §1, §2, §3

The target in assay [3] is T3, human KOR (Homo sapiens, UniProt P41145).
T3 construct: expressed in transfected cells; cell lines provided by Professor Lawrence Toll
Description: [3H]-diprenorphine competitive displacement binding, KOR. The note with it: for Ki: membranes from CHO cells expressing human KOR, mean (SEM), n>=3 in duplicate. Here is the method: as §1, §2
(§4) Binding affinities for all test compounds at KOR, MOR, and DOR were determined by competitive displacement of [^3H]-diprenorphine as previously reported. In a 96-well plate format, cell membranes (5–10 µg of protein) and [^3H]-diprenorphine (0.2 nM) were incubated in Tris-HCl buffer (50 mM, pH 7.4) with various concentrations of test compound at 25 °C for 1 h, allowing the mixture to reach equilibrium. Nonspecific binding was determined using the opioid antagonist naloxone (10 µM), and total binding was determined using vehicle in the absence of competitive ligand. After incubation, membranes were filtered through Whatman GF/C 1.2 micron glass fiber filters and washed with 50 mM Tris-HCl buffer. The radioactivity remaining on the filters was then quantified by liquid scintillation counting after saturation with EcoLume liquid scintillation cocktail in a Microbeta 2450 (Perkin-Elmer, Waltham, MA, USA). Binding affinity (Ki) values were calculated using the Cheng–Prusoff equation via nonlinear regression analysis using GraphPad Prism software from at least three separate binding assays performed in duplicate.

Assay [4] concerns the target T2, human DOR. Nature of the assay: [3H]-diprenorphine competitive displacement binding, DOR. The note with it: membranes from CHO cells expressing human DOR; mean (SEM), n>=3 in duplicate. As to the method:
as §1, §2, §4

In assay [5] the target is T3, human KOR. Description: [35S]-GTPγS binding stimulation, KOR. The note with it: mean (SEM); for EC50 KOR / EC50: CHO-human KOR membranes, * n = 2, dns = does not stimulate, average maximal stimulation <10% at up to 10 µM; for % Stimulation KOR / Emax: versus 10 µM standard agonist U69,593, dns = average maximal stimulation <10% at up to 10 µM. It counts as biochemical. Here is the method:
as §1, §2, §3

Assay [6] concerns the target T1, human MOR. Nature of the assay: [3H]-diprenorphine competitive displacement binding, MOR. As to conditions: membranes from CHO cells expressing human MOR; mean (SEM), n>=3 in duplicate. Here is the method: as §1, §2, §4
Setting [7] is: CHO-human DOR membranes, dns = does not stimulate, average maximal stimulation <10% at up to 10 µM.

With `Cc1cc(O)cc(C)c1C[C@H](N)C(=O)N1CCc2ccc(CN3CCCC3)cc2C1` [Compound 8m, (S)-2-amino-3-(4-hydroxy-2,6-dimethylphenyl)-1-(7-(pyrrolidin-1-ylmethyl)-3,4-dihydroisoquinolin-2(1H)-yl)propan-1-one], the maximum response (Emax) on human MOR [1] is 40%. The “EC50 DOR” value at human DOR [2] (setting [7]) was “dns *”. The “% Stimulation DOR” value on human DOR [2] is “dns *”. The Ki at human KOR [3] was found to be 69 nM; at human DOR [4], 175 nM; on human MOR [6] it was 17 nM. At human KOR [5], the “EC50 KOR” value is “dns”. For the same compound, the “% Stimulation KOR” value on human KOR [5] is recorded as “dns”.

Consider `Cc1cc(O)cc(C)c1C[C@H](N)C(=O)N1CCc2ccc(CN3Cc4ccccc4C3)cc2C1` [Compound 8z, (S)-2-amino-3-(4-hydroxy-2,6-dimethylphenyl)-1-(7-(isoindolin-2-ylmethyl)-3,4-dihydroisoquinolin-2(1H)-yl)propan-1-one], for which, on human MOR [1], the midpoint of the response, the EC50, lay at 27 nM. For the same compound, the Emax at human MOR [1] is 63%. On human DOR [2] (setting [7]), the “EC50 DOR” value is “dns *”. In addition, at human DOR [2], the “% Stimulation DOR” value was “dns *”. Further, the “selectivity for MOR and DOR over KOR” value at human KOR [3] (binding selectivity) stood at 43 fold. Moreover, the Ki stood at 65 nM at human KOR [3], 1.3 nM at human DOR [4] and 1.5 nM at human MOR [6]. Further, at human KOR [5], the “EC50 KOR” value is listed as “dns”. Further, the “% Stimulation KOR” value at human KOR [5] is reported as “dns”.

In the case of `Cc1cc(O)cc(C)c1C[C@H](N)C(=O)N1CCc2ccc(Cc3ccncc3)cc2C1` [Compound 8k, (S)-2-amino-3-(4-hydroxy-2,6-dimethylphenyl)-1-(7-(pyridin-4-ylmethyl)-3,4-dihydroisoquinolin-2(1H)-yl)propan-1-one], the figures for the EC50 at human MOR [1] and at human KOR [5] were 179 nM and 1180 nM, respectively. In addition, the Emax is 28% on human MOR [1] and 44% on human KOR [5]. On human DOR [2] (setting [7]), the “EC50 DOR” value is given as “dns”. The “% Stimulation DOR” value at human DOR [2] is on record as “dns”. For the same compound, the results for the Ki on human KOR [3], on human DOR [4] and on human MOR [6] were 44 nM, 2.6 nM and 42 nM, respectively.

As for `Cc1cc(O)cc(C)c1C[C@H](N)C(=O)N1CCc2ccc(Cc3cccc4ncccc34)cc2C1` [Compound 8t, (S)-2-amino-3-(4-hydroxy-2,6-dimethylphenyl)-1-(7-(quinolin-5-ylmethyl)-3,4-dihydroisoquinolin-2(1H)-yl)propan-1-one], the concentration for a half-maximal effect (EC50) at human MOR [1] was 54 nM; on human KOR [5], 58 nM. Besides, on human MOR [1] (ratio of EC50 values, GTPγS), the “more potent at MOR (versus KOR)” value is given as “equipotent”. The Emax was 31% at human MOR [1] and 69% at human KOR [5]. Moreover, on human DOR [2] (setting [7]), the “EC50 DOR” value is “dns *”. Besides, the “% Stimulation DOR” value at human DOR [2] was “dns *”. Further, at human KOR [3] (binding selectivity), the “selective for KOR and DOR over MOR” value is “approximately 3 fold”. Besides, the Ki was found to be 1.5 nM at human KOR [3], 1.2 nM at human DOR [4] and 4.6 nM on human MOR [6].

At human MOR [1], `Cc1cc(O)cc(C)c1C[C@H](N)C(=O)N1CCc2ccc(Cc3ccc4ccccc4c3)cc2C1` [Compound 8p, (S)-2-amino-3-(4-hydroxy-2,6-dimethylphenyl)-1-(7-(naphthalen-2-ylmethyl)-3,4-dihydroisoquinolin-2(1H)-yl)propan-1-one] came in with a concentration for a half-maximal effect (EC50) of 176 nM and an Emax of 51%. Moreover, the “EC50 DOR” value at human DOR [2] (setting [7]) is listed as “dns”. Also, at human DOR [2], the “% Stimulation DOR” value is recorded as “dns”. The compound further had a Ki at human KOR [3] of 142 nM. The affinity on human DOR [4], expressed as Ki, was 3.5 nM. Besides, at human KOR [5], the “EC50 KOR” value is recorded as “dns” and the “% Stimulation KOR” value is on record as “dns”. In addition, the Ki at human MOR [6] came to 5.8 nM.

Take `Cc1cc(O)cc(C)c1C[C@H](N)C(=O)N1CCc2ccc(Cc3ccccc3C#N)cc2C1` [Compound 8d, (S)-2-((2-(2-amino-3-(4-hydroxy-2,6-dimethylphenyl)propanoyl)-1,2,3,4-tetrahydroisoquinolin-7-yl)methyl)benzonitrile]: the EC50 at human MOR [1] worked out at 664 nM; on human KOR [5], 3.7 nM. Moreover, the Emax on human MOR [1] is 31%; on human KOR [5] it was 80%. Also, the “EC50 DOR” value on human DOR [2] (setting [7]) was “dns”. The “% Stimulation DOR” value on human DOR [2] is given as “dns”. In addition, the Ki at human KOR [3] is 0.5 nM; at human DOR [4], 3.6 nM; at human MOR [6] it was 6.8 nM.

For the compound `Cc1cc(O)cc(C)c1C[C@H](N)C(=O)N1CCc2ccc(Cc3cncc4ccccc34)cc2C1` [Compound 8v, (S)-2-amino-3-(4-hydroxy-2,6-dimethylphenyl)-1-(7-(isoquinolin-4-ylmethyl)-3,4-dihydroisoquinolin-2(1H)-yl)propan-1-one], the concentration for a half-maximal effect (EC50) on human MOR [1] worked out at 12 nM; on human DOR [2] (setting [7]), 19 nM; at human KOR [5], 14 nM. Besides, the Emax is 81% at human MOR [1] and 71% at human KOR [5]. Also, the “% Stimulation DOR” value at human DOR [2] is recorded as 39 (7) %. Moreover, the results for the inhibition constant (Ki) at human KOR [3], at human DOR [4] and on human MOR [6] were 0.73 nM, 0.3 nM and 1.4 nM, respectively.

Consider `Cc1cc(O)cc(C)c1C[C@H](N)C(=O)N1CCc2ccc(CN3CCOCC3)cc2C1` [Compound 8n, (S)-2-amino-3-(4-hydroxy-2,6-dimethylphenyl)-1-(7-(morpholinomethyl)-3,4-dihydroisoquinolin-2(1H)-yl)propan-1-one], for which, at human MOR [1], the EC50 turned out to be 860 nM and the Emax worked out at 38%. For the same compound, on human DOR [2] (setting [7]), the “EC50 DOR” value was “dns”. Also, the “% Stimulation DOR” value on human DOR [2] was “dns”. The compound further came in with a Ki at human KOR [3] of 43 nM. For the same compound, at human DOR [4], the Ki stood at 5.6 nM. Besides, at human KOR [5], the “EC50 KOR” value is recorded as “dns” and the “% Stimulation KOR” value is “dns”. The same compound displayed a Ki at human MOR [6] of 39 nM.

For the compound `Cc1cc(O)cc(C)c1C[C@H](N)C(=O)N1CCc2ccc(Cc3cccc4ccncc34)cc2C1` [Compound 8r, (S)-2-amino-3-(4-hydroxy-2,6-dimethylphenyl)-1-(7-(isoquinolin-8-ylmethyl)-3,4-dihydroisoquinolin-2(1H)-yl)propan-1-one], the results for the EC50 on human MOR [1] and at human KOR [5] were 24 nM and 65 nM, respectively. Further, the Emax came to 36% at human MOR [1] and 42% at human KOR [5]. Also, at human DOR [2] (setting [7]), the “EC50 DOR” value is listed as “dns *”. For the same compound, the “% Stimulation DOR” value at human DOR [2] is given as “dns *”. Moreover, the Ki on human KOR [3] is 2.7 nM; on human DOR [4], 0.69 nM; on human MOR [6] it was 1.8 nM.
